The text below walks through data of patent US11578074B2, “Nitrogenous heterocyclic compound, preparation method, intermediate, composition, and application” (SHANGHAI PHARMACEUTICALS HOLDING CO., LTD., priority 2017, dated 2023).

The target of one data set is EGFR kinase (Homo sapiens, UniProt P00533). Description: EGFR/ErbB2 enzymatic experiment (HTRF kinEASE-TK), EGFR. It counts as biochemical. Conditions: EGFR kinase 0.06 units/μL, ATP 1.65 μM; read-out: Kinase IC50 (nM) in vitro EGFR.
For data set [1], the system named is BT-474 (human breast cancer cell). Description: In vitro proliferation inhibition assay of cell lines (CellTiter-Glo), BT-474. It is filed as cell-based. The following applies: BT-474 cells, 72 hours. In a few lines: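 Cells were exposed to nine compound concentrations in duplicate for 72 h at 37 °C and 5% CO2. Viability was read with CellTiter-Glo reagent after equilibration at room temperature.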
A general note: In ATP-based viability assays light output follows the ATP content of the culture.

Data set [2] is described as follows: In vivo pharmacokinetic study in rats. The following applies: male, SD, rat, plasma, oral, 3 mg/kg intravenous, 6 mg/kg intragastric. Here is the method: Five male SD rats, weighing 180-220 g (provided by Shanghai Xipuerbikai Experimental Animal Co., Ltd, certificate No. 20130016005408). The rats were fasted for feed but not water for 12-16 hours before the experiment. Two rats were intravenously injected with 3 mg/kg (which was dissolved by the ratio 0.9% physiological saline:PEG 400=7:3, to give a clear solution with a concentration of 1 mg/mL and a dosage volume of 3 mL/kg) of the final product of Embodiment 45. Blood samples were collected before administration and at 2, 5, 15, 30, 60, 90, 120, 240, 360, 480, 600 and 1440 minutes after administration respectively; three rats were intragastricly administrated with 6 mg/kg (0.5% CMC-Na was added and grounded into a uniform suspension with a concentration of 0.75 mg/mL and a dosage volume of 8 mL/kg) of the final product of Embodiment 45. Blood samples were collected before administration and at 5, 15, 30, 60, 90, 120, 240, 360, 480, 600 and 1440 minutes after administration respectively.
(§1) 0.4 mL of blood was taken from fundus venous plexus of mice and rats into a heparinized centrifuge tube (10 μL heparin sodium solution/tube). […] After vortexing for 10 minutes and centrifuging at 6000 g and 4° C. for 10 minutes, the supernatant was diluted with mobile phase in a 96-well plate, and the drug concentration in plasma was determined by UPLC/MS-MS.

Data set [3] is described as follows: In vivo pharmacokinetic study in mice. Conditions: male, ICR, mouse, plasma, oral, 3 mg/kg intravenous, 10 mg/kg intragastric. Here is the method: 24 male ICR mice weighing 18-22 g (provided by Shanghai Xipuerbikai Experimental Animal Co., Ltd, certificate No.: 20130016005759). The mice were fasted for feed but not water for 12-16 hours before the experiment. 24 mice were divided into 2 groups with 12 mice in each group. The first group was intravenously administrated with 3 mg/kg (which was dissolved by the ratio 0.9% physiological saline:PEG 400=8:2, to give a clear solution with a concentration of 0.3 mg/mL and a dosage volume of 10 mL/kg) of the final product of Embodiment 45. Blood samples were collected before administration and 2, 5, 15, 30, 60, 90, 120, 240, 360, 480, 600 and 1440 minutes after administration, respectively. The second group was intragastricly administrated with 10 mg/kg (0.5% CMC-Na was added and grounded into a uniform suspension with a concentration of 0.5 mg/mL and a dosage volume of 20 mL/kg) of the final product of Embodiment 45. […]
as §1

Chain of EGFR kinase (P00533 25-1210): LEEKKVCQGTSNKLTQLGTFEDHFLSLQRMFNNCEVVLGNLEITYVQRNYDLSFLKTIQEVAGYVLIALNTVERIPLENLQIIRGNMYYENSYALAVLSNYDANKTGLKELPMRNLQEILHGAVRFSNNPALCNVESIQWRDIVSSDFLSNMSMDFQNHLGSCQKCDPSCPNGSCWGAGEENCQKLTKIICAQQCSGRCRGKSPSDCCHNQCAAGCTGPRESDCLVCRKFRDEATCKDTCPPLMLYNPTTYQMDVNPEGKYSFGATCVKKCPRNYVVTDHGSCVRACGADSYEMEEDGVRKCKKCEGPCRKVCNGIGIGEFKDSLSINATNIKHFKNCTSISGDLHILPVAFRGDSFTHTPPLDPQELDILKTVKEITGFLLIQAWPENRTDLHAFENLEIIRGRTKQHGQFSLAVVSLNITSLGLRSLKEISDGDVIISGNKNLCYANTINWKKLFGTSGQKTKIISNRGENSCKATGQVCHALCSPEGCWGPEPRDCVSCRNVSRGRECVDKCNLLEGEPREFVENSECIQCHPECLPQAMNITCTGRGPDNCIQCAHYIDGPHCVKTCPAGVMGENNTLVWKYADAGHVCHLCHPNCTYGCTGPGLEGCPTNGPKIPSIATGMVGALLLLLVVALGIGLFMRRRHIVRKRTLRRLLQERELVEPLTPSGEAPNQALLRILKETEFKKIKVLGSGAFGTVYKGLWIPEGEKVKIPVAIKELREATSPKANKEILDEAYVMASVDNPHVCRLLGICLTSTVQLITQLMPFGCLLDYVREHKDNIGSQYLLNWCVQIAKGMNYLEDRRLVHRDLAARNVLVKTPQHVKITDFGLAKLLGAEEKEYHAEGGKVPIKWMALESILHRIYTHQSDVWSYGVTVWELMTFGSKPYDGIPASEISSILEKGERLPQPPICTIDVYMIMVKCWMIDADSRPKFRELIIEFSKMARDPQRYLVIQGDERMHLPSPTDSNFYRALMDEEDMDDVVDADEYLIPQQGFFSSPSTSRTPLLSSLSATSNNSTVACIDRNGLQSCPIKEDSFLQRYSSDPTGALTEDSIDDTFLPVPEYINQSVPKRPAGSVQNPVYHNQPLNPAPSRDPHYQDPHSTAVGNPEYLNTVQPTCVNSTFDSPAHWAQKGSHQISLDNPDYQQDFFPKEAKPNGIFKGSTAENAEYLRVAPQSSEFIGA

In general, IC50 refers to the point on the concentration scale where inhibition reaches its midpoint. For the compound `CCOc1cc2ncnc(Nc3ccc(Oc4ccn5ncnc5c4)c(C)c3)c2cc1NC(=O)/C=C/[C@H]1CCCN1C` [Final product of Embodiment 22, (R,E)-N-(4-((4-([1,2,4]triazolo[1,5-a]pyridin-7-yloxy)-3-methylphenyl)amino)-7-ethoxyquinazolin-6-yl)-3-(1-methylpyrrolidin-2-yl)acrylamide], the half-maximal inhibitory concentration (IC50) at EGFR kinase came out at 0.8 nM; in data set [1], 1 nM.
Usually bioavailability stands for the share of a dose that reaches the circulation, judged against a reference dose that is usually intravenous. `CCOc1cc2ncnc(Nc3ccc(Oc4ccn5ncnc5c4)c(C)c3)c2cc1NC(=O)/C(F)=C/[C@H]1CCCN1C` [Final product of Embodiment 45]: the IC50 came out at 10.5 nM at EGFR kinase and 2.1 nM in data set [1]. The bioavailability in data set [2] turned out to be 71.3%; in data set [3], 87.7%.
